Several values for one entry are separate records, joined by “and”; a condition that tells them apart may be missing. Equal entries are not always repeated.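 Each compound was tested at five concentrations against cells in 96-well plates for 48 hours. At the GI50, growth is halved. Definition used: TGI = concentration required for complete inhibition of growth.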
System: MDA-MB-468 breast
Test: inhibition of tumour cell growth, NCI panel, 48 h

| SMILES | GI50 [µM] | TGI |
| --- | --- | --- |
| C=C1C(=O)O[C@H]2[C@H]1CC/C(C=Nc1c(N)cc(C(F)(F)F)cc1Br)=C\CC[C@@]1(C)O[C@@H]21 | 1.88 | 4.19 µM |
| O=C1CCCCN1CCCCC#Cc1cccc(C#Cc2cccnc2)c1 | 10.2 | 28.5 µM |
| CCC1=CC2CN(C1)Cc1c([nH]c3ccccc13)[C@@](C(=O)OC)(c1cc3c(cc1OC)N(C)[C@H]1[C@@](O)(C(=O)OC)[C@H](OC(C)=O)[C@]4(CC)C=CCN5CC[C@]31[C@@H]54)C2 (some centres undefined) |  | 21 µM |
| O=C(Nc1ccc(Cl)c(Cl)c1)NS(=O)(=O)c1cnccc1Oc1ccc(F)cc1 | 4.26 | > 100 µM |
| CNC(=O)c1nn(C)c2c1C(C)(C)Cc1cnc(Nc3ccc(N4CCN(C)CC4)cc3)nc1-2 | 0.813 | > 4.2 µM |
| O=C1NC(=O)c2c1c1c3ccccc3ccc1c1[nH]c3ccccc3c21 | 0.953 | 8.87 µM |
| C=C1C(=O)O[C@H]2[C@H]1CC/C(COC(=O)NCC(C)c1ccc(CC(C)C)cc1)=C\CC[C@@]1(C)O[C@@H]21 (some centres undefined) | 0.656 | 1.84 µM |
| O=C(O)[C@@H](Cc1ccc2ccccc2c1)NC(=O)n1c2ccccc2c2ccccc21 | 1.9 | 7.17 µM |
| COc1cc(NCCCCCCCNC(C)C)c2nccc(C)c2c1 | 3.11 | 14.7 µM |
| CN(C)c1ccc(-c2ccc(-c3ccc(C(=N)N)cc3)s2)cc1 | 1.94 | 3.76 µM |
| OC(c1cc2ccc(C(F)(F)F)cc2c2cc(C(F)(F)F)ccc12)C1CCCCN1 (centres undefined) | 1.6 | 3.09 µM |
| C(=N\Nc1nnn(Cc2ccccc2)n1)/c1ccccc1 | 1.48 | 11.9 µM |
| CN(C)C(=O)O[C@H]1CN[C@H](C#Cc2cc3ncnc(Nc4ccc(OCc5cccc(F)c5)c(Cl)c4)c3s2)C1 | 0.595 | 5.11 µM |
| CCc1c2c(nc3ccc(OC(=O)N4CCC(N5CCCCC5)CC4)cc13)-c1cc3c(c(=O)n1C2)COC(=O)[C@]3(O)CC |  | 1.79 µM and 1.51 µM and 5.77 µM |
| CCOc1ccc(-c2nnc(C3CC(NC(=O)c4cccc5nccnc45)C3)n2-c2ccccc2F)nc1 (centres undefined) | 10 | 71.5 µM |
| O=S(=O)(CCCl)c1ccc(Cl)cc1 | 1.82 | 5.77 µM |
| CN1/C(=C\C=C\C2=[N+](C)c3ccccc3C2(C)C)C(C)(C)c2ccccc21 | 0.0217 | 0.123 µM |
| O=C(N/N=C/c1ccccc1O)c1ccccc1 | 0.292 | > 100 µM |

Source: PubChem BioAssay (NCI)
